In US6897215B1, “Compounds having 5-HT6 receptor antagonist activity” (NPS Allelix Corp., priority 1999, dated 2005):
Like-named read-outs stand apart in the source and are kept apart here.

How the values were obtained:
[1] = target: T1, human 5-HT6 subtype of receptor (Homo sapiens, UniProt P50406); test: biochemical
[2] = target: T1, human 5-HT6 subtype of receptor; details: read-out: 5-HT6 receptor affinity (Ki); radioligand 3H-LSD, 60 minute incubation at 37° C.
[3] = target: T2, human 5-HT6 receptors (Homo sapiens, UniProt P50406); test: functional adenylyl cyclase assay: cAMP accumulation in stably transfected HEK293 cells; assay type: cell-based; details: 1 uM serotonin
T2 construct: expressed in transfected cells; host or cells: HEK293 (stably transfected, G418 selection)
T2 sequence (P50406 whole entry): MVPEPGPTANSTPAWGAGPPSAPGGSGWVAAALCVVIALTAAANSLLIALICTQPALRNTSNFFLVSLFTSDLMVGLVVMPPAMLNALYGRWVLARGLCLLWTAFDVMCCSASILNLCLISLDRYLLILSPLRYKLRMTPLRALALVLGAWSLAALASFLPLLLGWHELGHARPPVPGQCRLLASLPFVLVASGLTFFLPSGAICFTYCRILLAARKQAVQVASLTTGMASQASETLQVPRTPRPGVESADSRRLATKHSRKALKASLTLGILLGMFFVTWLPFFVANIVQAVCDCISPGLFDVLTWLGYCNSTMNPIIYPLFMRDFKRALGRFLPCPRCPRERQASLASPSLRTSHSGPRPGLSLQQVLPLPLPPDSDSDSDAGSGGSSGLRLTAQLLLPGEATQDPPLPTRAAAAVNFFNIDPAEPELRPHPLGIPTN

[4] = test system: a number of other receptors including other serotonin receptors such as 5-HT1A and 5-HT7; test: selectivity over other receptors; details: 5-HT6 versus other receptors incl. 5-HT1A and 5-HT7

T1 sequence (P50406 whole entry): as above

Ki [1] [nM] | Ki [2] [nM] | IC50 [3] [nM] | antagonist property at the 5-HT6 receptor [3] | selectivity over other receptors [4] | Compound
0.7 |  |  |  |  | O=S(=O)(c1cccc2ccccc12)n1ccc2ccc(C3CCN4CCCC4C3)cc21 (single isomer, unassigned) [Example 5F (13)]
 | 0.2 | 7.2 | competitive antagonist | good selectivity | O=S(=O)(c1cccc2ccccc12)n1ccc2ccc(N3CCN4CCCC4C3)cc21 (stereo not drawn) [Example 4a, 6-[6,5-Bicyclopiperazinyl]-1-[1-naphthylenesulphonyl]indole]
 | 0.8 |  |  |  | O=S(=O)(c1cccc2ccccc12)n1ccc2ccc(C3CCN4CCCC4C3)cc21 [Example 5F (12), 6-[(7-R,S)(8a-R,S)-Octahydroindolizin-7-yl]-1-naphthylsulfonyl-indole]
